Test results: patent US9204653B2, “5-fluoro pyrimidine derivatives” (DOW AGROSCIENCES LLC, priority 2008, dated 2015)
Read-outs that look alike come from different tables or passages of the source.

System: Mycosphaerella graminicola; Anamorph: Septoria tritici; Bayer Code SEPTTR
Experiment: Leaf blotch of wheat, foliar fungicide treatment, one day protectant (1DP) or three day curative (3DC)
Format: in vivo, Septoria tritici on wheat plants (variety Yuma)
Settings: Zymoseptoria tritici, rating of percent disease control
[1] = 24 h, one day protectant (1DP), read-out: SETTTR 1DP 25 ppm
[2] = 24 h, one day protectant (1DP), read-out: SEPTTR 1DP 100 ppm
[3] = 72 h, three day curative (3DC), read-out: SEPTTR 3DC 25 ppm
[4] = 72 h, three day curative (3DC), read-out: SEPTTR 3DC 100 ppm

| Compound | pest or weed control at 25 ppm [1] [%] | pest or weed control at 100 ppm [2] [%] | pest or weed control at 25 ppm [3] [%] | pest or weed control at 100 ppm [4] [%] |
| --- | --- | --- | --- | --- |
| CN(C)/C=N/c1nc(OC(=O)Oc2ccc(Cl)cc2)ncc1F [Compound 361] | 51 to 75 | 76 to 100 | 76 to 100 | 76 to 100 |
| COCNc1nc(OCc2ccc(F)cc2)ncc1F [Compound 362] | 51 to 75 | 76 to 100 | 51 to 75 | 76 to 100 |
| O=C(Nc1nc(OCc2ccc(F)cc2)ncc1F)c1ccccc1 [Compound 364] | 76 to 100 | 76 to 100 | 76 to 100 | 76 to 100 |
| Cc1cc(COc2ncc(F)c(N)n2)ccc1F [Compound 365] | 76 to 100 | 76 to 100 | 76 to 100 | 76 to 100 |
| Cn1ccc(COc2ncc(F)c(NSc3ccccc3[N+](=O)[O-])n2)n1 [Compound 366] | 76 to 100 | 76 to 100 | 51 to 75 | 76 to 100 |
| COc1cccc(COc2ncc(F)c(N(N)c3ccccc3)n2)c1 [Compound 367] | 0 to 25 | 0 to 25 | 0 to 25 | 0 to 25 |
| Nc1nc(OCc2cccc(OC(F)F)c2)ncc1F [Compound 368] | 76 to 100 | 76 to 100 | 76 to 100 | 76 to 100 |
| Fc1cnc(OCc2cccs2)nc1/N=C/N1CCOCC1 [Compound 369] | 76 to 100 | 76 to 100 | 76 to 100 | 76 to 100 |
| O=C(NCc1ccccc1F)Nc1nc(OCc2ccccc2)ncc1F [Compound 371] | 0 to 25 | 0 to 25 | 0 to 25 | 0 to 25 |
| CN(CCOc1ncc(F)c(N)n1)c1ccccc1 [Compound 372] | 26 to 50 | 76 to 100 | – | – |
| CCOCNc1nc(OCc2ccn(C)n2)ncc1F [Compound 374] | 51 to 75 | 76 to 100 | 76 to 100 | 76 to 100 |
| CCOCCOc1cccc(COc2ncc(F)c(NC)n2)c1 [Compound 375] | 0 to 25 | 0 to 25 | 26 to 50 | 76 to 100 |
| O=C(Nc1cccs1)Nc1nc(OCc2ccc(F)cc2)ncc1F [Compound 376] | 0 to 25 | 0 to 25 | 0 to 25 | 26 to 50 |
| Cc1ccc(COc2ncc(F)c(/N=C3\CCCCN3C)n2)cc1 [Compound 377] | 76 to 100 | 76 to 100 | 51 to 75 | 76 to 100 |
| Nc1nc(Oc2ccc(Cl)c3ccccc23)ncc1F [Compound 378] | 51 to 75 | 76 to 100 | 76 to 100 | 76 to 100 |
| CCOCNc1nc(OC(C)c2ccc(F)cc2)ncc1F (stereo not drawn) [Compound 379] | 76 to 100 | 76 to 100 | 51 to 75 | 76 to 100 |
| NN(Cc1ccccc1)c1nc(OCc2ccc(F)cc2)ncc1F [Compound 380] | 76 to 100 | 76 to 100 | 0 to 25 | 76 to 100 |
| Nc1nc(OCc2cccc3ccsc23)ncc1F [Compound 381] | 76 to 100 | 76 to 100 | 76 to 100 | 76 to 100 |
| CC(Oc1ncc(F)c(N)n1)c1c(Cl)ccc(Cl)c1Cl (stereo not drawn) [Compound 382] | 76 to 100 | 76 to 100 | 0 to 25 | 76 to 100 |
| Nc1nc(OCc2ccccc2Cn2cncn2)ncc1F [Compound 383] | 0 to 25 | 0 to 25 | 26 to 50 | 0 to 25 |
| CC(C)(C)Oc1cccc(COc2ncc(F)c(N)n2)c1 [Compound 385] | 76 to 100 | 76 to 100 | 76 to 100 | 76 to 100 |
| COc1ccc(COc2ncc(F)c(N)n2)cc1C [Compound 386] | 76 to 100 | 76 to 100 | 76 to 100 | 76 to 100 |
| CC(C)c1ccc(C(C)Oc2ncc(F)c(N)n2)cc1 (stereo not drawn) [Compound 387] | 76 to 100 | 76 to 100 | 76 to 100 | 76 to 100 |
